These are literature values, as cited in US20050202001A1 (priority 2002, published 2005).

The test system of series [1] is normal human neonatal melanocytes.

`COc1cccc(-c2cc(=O)c3ccccc3o2)c1N` [PD98059]: the melanogenesis result (in the series on human melanoma cells; in series [1]) was “stimulated melanogenesis” throughout.
